Columns and labels:
Assay type in all cases: in vivo
[1] = test system: Spodoptera littoralis (Egyptian Cotton Leafworm); test: Spodoptera littoralis cotton leaf disc spray test; conditions: same protocol, 200 ppm, 3 DAT
Protocol: (§1) This Example illustrates the pesticidal/insecticidal properties of compounds of formula (I). The tests were performed as follows:
Spodoptera littoralis (Egyptian Cotton Leafworm)
(§2) Cotton leaf discs were placed on agar in a 24-well microtiter plate and sprayed with test solutions at an application rate of 200 ppm. After drying, the leaf discs were infested with 5 L1 larvae. The samples were checked for mortality, feeding behavior, and growth regulation 3 days after treatment (DAT). The following compounds gave at least 80% control of Spodoptera littoralis: A2, A6, A8, A9, A10, A11, A13, A15, A19, A20, A22, A25, A27, A29, A31, A33, A35, A41, A50, A55, A60, A65, A73, A88, A92, and A94. Heliothis virescens (Tobacco Budworm): Eggs (0-24 h old) were placed in 24-well microtiter plate on artificial diet and treated with test solutions at an application rate of 200 ppm (concentration in well 18 ppm) by pipetting. After an incubation period of 4 days, samples were checked for egg mortality, larval mortality and growth regulation. The following compounds gave at least 80% control of Heliothis virescens: A2, A3, A4, A5, A6, A7, A9, A10, A11, A13, A15, A19, A20, A22, A25, A26, A27, A28, A29, A31, A32, A33, A35, A38, A40, A41, A43, A46, A55, A59, A60, A65, A69, A70, A71, A73, A74, A75, A77, A79, A80, A82, A86, A88, A89, A90, A92, A94, A96, A98, and A100. Plutella xylostella (Diamond Back Moth): A 24-well microtiter plate (MTP) with artificial diet was treated with test solutions at an application rate of 200 ppm (concentration in well 18 ppm) by pipetting. After drying, the MTP's were infested with L2 larvae (7-12 per well). After an incubation period of 6 days, samples were checked for larval mortality and growth regulation. The following compounds gave at least 80% control of Plutella xylostella: A3, A4, A5, A6, A7, A8, A10, A15, A16, A18, A19, A20, A22, A25, A26, A27, A28, A29, A31, A32, A33, A35, A38, A40, A55, A69, A71, A73, A74, A75, A76, A77, A78, A80, A82, A86, A87, A88, A89, A92, A94, A96, A97, A98, and A99. Diabrotica balteata (Corn Root Worm): A 24-well microtiter plate (MTP) with artificial diet was treated with test solutions at an application rate of 200 ppm (concentration in well 18 ppm) by pipetting. After drying, the MTP's were infested with larvae (L2) (6-10 per well). After an incubation period of 5 days, samples were checked for larval mortality, and growth regulation. The following compounds gave at least 80% control of Diabrotica balteata: A5, A6, A7, A14, A15, A18, A24, A35, A53, A55, A70, A71, A75, A79, A84, A85, A88, A92, A93, A95, A96, A97, A98, A99, A100, A101, A102, A103, and A104. Myzus persicae (Green Peach Aphid): Each well of a 24-well microtiter plate is filled with 0.6 ml 30% sucrose solution, containing 12.5 ppm of the test compounds. The wells are covered with streched parafilm and infested with a mixed population of Myzus persicae. After an incubation period of 6 days, samples are checked for mortality (feeding activity). The following compounds gave at least 80% control of Myzus persicae: A4, A6, A10, A11, A15, A19, A20, A24, A27, A29, A33, A34, A36, A37, A39, A40, A41, A42, A43, A44, A45, A46, A47, A48, A49, A55, A60, and A82. Tetranychus urticae (Two-Spotted Spider Mite): Bean leaf discs on agar in 24-well microtiter plates were sprayed with test solutions at an application rate of 200 ppm. After drying, the leaf discs are infested with mite populations of mixed ages. 8 days later, discs are checked for egg mortality, larval mortality, and adult mortality. The following compounds gave at least 80% control of Tetranychus urticae: A6, A11, A15, A19, A20, A22, A26, A35, A58, and A64.

[2] = test system: Heliothis virescens (Tobacco Budworm); test: Heliothis virescens egg test on artificial diet; conditions: same protocol, 200 ppm (18 ppm in well), 4 days
Protocol: as §1, §2

[3] = test system: Plutella xylostella (Diamond Back Moth); test: Plutella xylostella larvae test on artificial diet; conditions: same protocol, 200 ppm (18 ppm in well), 6 days
Protocol: as §1, §2

[4] = test system: Diabrotica balteata (Corn Root Worm); test: Diabrotica balteata larvae test on artificial diet; conditions: same protocol, 200 ppm (18 ppm in well), 5 days
Protocol: as §1, §2

[5] = test system: Myzus persicae (Green Peach Aphid); test: Myzus persicae sucrose solution feeding test; conditions: same protocol, 12.5 ppm, 6 days
Protocol: as §1, §2

[6] = test system: Tetranychus urticae (Two-Spotted Spider Mite); test: Tetranychus urticae bean leaf disc spray test; conditions: same protocol, 200 ppm, 8 days
Protocol: as §1, §2

Measured: effect on mortality, feeding behavior, or growth regulation

CCCCNC(=O)c1ccc(C(=O)Nc2c(C)cc(C(F)(C(F)(F)F)C(F)(F)F)cc2C)cc1C [A1, N-1-butyl-N-4-[2,6-dimethyl-4-(1,2,2,2-tetrafluoro-1-trifluoro-methyl-ethyl)-phenyl]-2-methyl-terephthalamide]
no or little effect: all assays above

CCOC(=O)C1CC=CCC1NC(=O)c1ccc(C(=O)Nc2c(C)cc(C(F)(C(F)(F)F)C(F)(F)C(F)(F)F)cc2CC)cc1C (stereo not drawn) [A12]
no or little effect: all assays above

CCc1cc(C(F)(C(F)(F)F)C(F)(F)C(F)(F)F)cc(C)c1NC(=O)c1ccc(C(=O)NC(C)COC)c(C)c1 (stereo not drawn) [A17]
no or little effect: all assays above

CCc1cc(C(F)(C(F)(F)F)C(F)(F)C(F)(F)F)cc(C)c1NC(=O)c1ccc(C(=O)NC2CCCCC2C)c(C)c1 (stereo not drawn) [A21]
no or little effect: all assays above

CCc1cc(C(F)(C(F)(F)F)C(F)(F)C(F)(F)F)cc(C)c1NC(=O)c1ccc(C(=O)NCCCN2CCCC2)c(C)c1 (stereo not drawn) [A23]
no or little effect: all assays above

CCc1cc(C(F)(C(F)(F)F)C(F)(F)C(F)(F)F)cc(C)c1NC(=O)c1ccc(C(=O)NCc2ccccc2OC(F)(F)F)c(C)c1 (stereo not drawn) [A30]
no or little effect: all assays above

CCc1cc(C(F)(C(F)(F)F)C(F)(F)C(F)(F)F)cc(C)c1NC(=O)c1ccc(C(=O)Nc2ccccc2-c2cc3ccccc3[nH]2)c(C)c1 (stereo not drawn) [A51]
no or little effect: all assays above

CCc1cc(C(F)(C(F)(F)F)C(F)(F)C(F)(F)F)cc(C)c1NC(=O)c1ccc(C(=O)Nc2ccccc2N2CCOCC2)c(C)c1 (stereo not drawn) [A52]
no or little effect: all assays above

CCc1cc(C(F)(C(F)(F)F)C(F)(F)C(F)(F)F)cc(C)c1NC(=O)c1ccc(C(=O)Nc2cc(C)nn2C)c(C)c1 (stereo not drawn) [A54]
no or little effect: all assays above

CCc1cc(C(F)(C(F)(F)F)C(F)(F)C(F)(F)F)cc(C)c1NC(=O)c1ccc(C(=O)Nc2n[nH]c(SC)n2)c(C)c1 (stereo not drawn) [A56]
no or little effect: all assays above

CCc1cc(C(F)(C(F)(F)F)C(F)(F)C(F)(F)F)cc(C)c1NC(=O)c1ccc(C(=O)Nc2ncccc2C)c(C)c1 (stereo not drawn) [A57]
no or little effect: all assays above

CCc1cc(C(F)(C(F)(F)F)C(F)(F)C(F)(F)F)cc(C)c1NC(=O)c1ccc(C(=O)Nc2cc(-c3ccccc3)[nH]n2)c(C)c1 (stereo not drawn) [A61]
no or little effect: all assays above

Reference: patent US8658698B2, “Insecticidal compounds” (Syngenta Crop Protection, LLC, priority 2008, dated 2014)
